# Test results published in patent US20190060249A1 (priority 2017, published 2019).
# Legend:
# [1] = test system: salispheres of C57BL/6 mice; test: Organoid formation assay; assay type: cell-based, mouse; settings: 25 μM Alda-341, 7 d
# Protocol: Organoids, defined as having greater than or equal to 5 buds, were blindly counted and quantified as a ratio of organoid number to total number of organoids and undifferentiated spheres. 4 replicates per group. All error bars represent SEM. *=p<0.05; **=p<0.01; ***=p<0.001 (Student's t-test).
# Organoid formation assay: Spheres were dissociated in 1 mg/mL dispase (BD Biosciences) for 20 minutes and resuspended in 80% collagen, 10% 10× F12, and 10% Solution C (2.2 g NaHCO3 in 100 mL of 0.05 N NaOH and 200 mM HEPES) and combined with 60% matrigel. 200 spheres per well were plated in a Millicell cell culture insert (EMD Millipore) with sphere media. Organoids defined as having greater than or equal to 5 buds formed after 2-3 d in culture and were grown for 7 d before imaging with a BZ-X710 Keyence microscope using the z-stack function. Images were stitched together into a single image and the number of differentiated organoids and undifferentiated spheres were blindly counted and quantified as a ratio of organoid number to total number of organoids and undifferentiated spheres. Experiments were repeated at least three independent times.
# ALDH7A1 = target: T1, ALDH7A1 (Homo sapiens, UniProt P49419); test: ALDH enzymatic assay, recombinant ALDH7A1; assay type: biochemical; settings: 5 μg/ml recombinant enzyme, 10 mM acetaldehyde, 20 μM Alda-341
# T1 sequence (P49419 27-539): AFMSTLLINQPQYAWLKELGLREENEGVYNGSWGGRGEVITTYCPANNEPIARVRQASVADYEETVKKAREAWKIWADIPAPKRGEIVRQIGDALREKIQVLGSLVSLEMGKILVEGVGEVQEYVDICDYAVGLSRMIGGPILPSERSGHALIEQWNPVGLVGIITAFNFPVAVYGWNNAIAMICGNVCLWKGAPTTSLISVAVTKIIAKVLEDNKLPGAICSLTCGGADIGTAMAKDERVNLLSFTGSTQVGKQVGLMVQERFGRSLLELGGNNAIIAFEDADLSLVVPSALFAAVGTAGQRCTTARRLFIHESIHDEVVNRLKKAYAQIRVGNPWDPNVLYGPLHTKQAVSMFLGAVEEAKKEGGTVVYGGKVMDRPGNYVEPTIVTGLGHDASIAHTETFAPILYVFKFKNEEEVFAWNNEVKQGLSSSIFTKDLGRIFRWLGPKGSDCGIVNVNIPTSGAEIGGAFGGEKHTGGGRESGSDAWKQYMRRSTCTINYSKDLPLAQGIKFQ
# Protocol: ALDH enzymatic assay: ALDH1A1, ALDH1A2, 2, 3A1, 3A2, 4A1, 5A1, 7A1 were measured as previously described using 5 μg/ml of recombinant protein (Chen, C. H., Cruz, L. A., and Mochly-Rosen, D. (2015) Pharmacological recruitment of aldehyde dehydrogenase 3A1 (ALDH3A1) to assist ALDH2 in acetaldehyde and ethanol metabolism in vivo. Proceedings of the National Academy of Sciences of the United States of America 112, 3074-3079). […] Assays were conducted in 50 mM NaPPi buffer (pH 7.4) in the presence of 2.5 mM NAD^+ and 10 mM substrate and measured in triplicate at 25° C. Dose response curve fits and EC50's were calculated using GraphPad Prism 7 software.
# Human salivary cells = test: Salisphere formation assay, human; assay type: cell-based; settings: 25 μM Alda-341; cells from normal salivary gland tissue of head and neck cancer patients
# Protocol: Salisphere formation assay: Cells isolated from mouse submandibular glands (SMG) were FACS sorted using cell surface markers EpCAM and CD24 as previously described and seeded on matrigel (BD Biosciences, BD356235). Cells were grown in DMEM/F12+GlutaMax (Gibco, 10565-018) media containing 10% FBS, 1× anti-anti, 1% N2 supplement (Gibco), 20 ng/mL […] (Sigma-Aldrich), 20 ng/mL fibroblast growth factor-2 (Sigma-Aldrich), 10 μg/mL insulin (Sigma-Aldrich), 1 μM dexamethasone (Sigma-Aldrich), 10 μM […] (Stem Cell Technologies). Spheres were passaged every 7 days by dissociating into single cells by incubating in 1 mg/mL dispase (BD Biosciences) for 20 minutes and 0.25% trypsin-EDTA for 20 minutes. Spheres were grown for 7 days and imaged with a BZ-X710 Keyence microscope using the z-stack function. Images were stitched together into a single image and analyzed using ImageJ (NIH) to quantify sphere number and area. Experiments were repeated at least 3 independent times.
# Sphere number per well quantified by Image J (NIH). 4 replicates per group.
# Salivary gland tissue dissociation: Mouse and human salivary gland cells were isolated as previously described in, Szlavik, V., Szabo, B., Vicsek, T., Barabas, J., Bogdan, S., Gresz, V., Varga, G., O'Connell, B., and Vag, J. (2008) Differentiation of primary human submandibular gland cells cultured on basement membrane extract. […]
compound,measurement,setting,value
"C=C(C)[C@H]1CC=C(C)CC1 [Alda-341, D-limonene]",more organoids than vehicle-treated control,[1],25%
same,catalytic activity of ALDH7A1,ALDH7A1,did not increase
same,more salispheres than untreated cells,Human salivary cells,about 30%
